The record followed here is US7491825B2, “Basic non-peptide bradykinin antagonists and pharmaceutical compositions therefrom” (Menarini Ricerche S.p.A., priority 2002, dated 2009).

Where a name gives a salt, the structure may show the parent alone.

In one assay the target is T1, human B2 receptor (Homo sapiens, UniProt P30411).
T1 construct: human B2 receptor expressed in human fibroblasts W138; endogenous in cells; host or cells: human fibroblasts W138 (WI-38)
T1 sequence (P30411 1-391): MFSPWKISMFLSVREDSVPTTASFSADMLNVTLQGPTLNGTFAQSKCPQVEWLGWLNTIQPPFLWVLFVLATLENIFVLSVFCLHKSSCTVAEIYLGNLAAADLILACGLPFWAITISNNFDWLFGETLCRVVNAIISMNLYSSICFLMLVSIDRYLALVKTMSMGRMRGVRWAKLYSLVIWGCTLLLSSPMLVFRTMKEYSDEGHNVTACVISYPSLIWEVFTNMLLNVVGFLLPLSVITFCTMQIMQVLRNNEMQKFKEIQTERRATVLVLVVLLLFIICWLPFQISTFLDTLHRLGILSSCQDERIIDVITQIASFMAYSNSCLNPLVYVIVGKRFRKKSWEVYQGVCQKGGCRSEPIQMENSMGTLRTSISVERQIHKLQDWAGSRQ
Description: binding to the human B2 receptor expressed in human fibroblasts W138.
Conditions: not given
An excerpt:
In the following the binding values are reported expressed as pKi.
In the case of `Cc1ccc2cccc(OCc3c(Cl)ccc(S(=O)(=O)NC(C)(C)C(=O)N4CCN(C(=O)CC5CCNCC5)CC4)c3Cl)c2n1` [Example 25, N-{2-[4-2-(Piperidin-4-yl-acetyl)-piperazin-1-yl]-1,1-dimethyl-2-oxo-ethyl}-2,4-dichloro-3-(2-methyl-8-quinolinoxymethyl)-benzenesulfonamide bis trifluoroacetate], the Ki is 0.537 nM.

`Cc1cc(C)c2cccc(OCc3c(Cl)ccc(S(=O)(=O)NC4(C(=O)N5CCN(C(=N)NCCCCCCN)CC5)CCCC4)c3Cl)c2n1` [Example 95, N-(6-Amino-hexyl)-4-{1-[2,4-dichloro-3-(2,4-dimethyl-quinolin-8-yloxymethyl)-benzenesulfonylamino]-cyclopentanecarbonyl}-piperazine-1-carboxamidine bis trifluoroacetate]: the Ki was 0.501 nM.

`CC[C@@](C)(NS(=O)(=O)c1ccc(Cl)c(COc2cccc3c(C)cc(C)nc23)c1Cl)C(=O)N1CCN(C(=O)C[C@@H](N)CCCNC(=N)N)CC1` [Example 70, (R)—N-[4-(3-(S)-Amino-6-guanidino-hexanoyl)-piperazine-1-carbonyl]-1-methyl-propyl]-2,4-dichloro-3-(2,4-dimethyl-quinolin-8-yloxymethyl)-benzenesulfonamide tris trifluoroacetate] had a Ki of 0.631 nM.

`Cc1cc(C)c2cccc(OCc3c(Cl)ccc(S(=O)(=O)NC(C)(C)C(=O)N4CCN(C(=O)[C@@H](N)CCCNC(=N)N)CC4)c3Cl)c2n1` [Example 48, N-[2-[4-(2-(S)-Amino-5-guanidino-pentanoyl)-piperazin-1-yl]-1,1-dimethyl-2-oxo-ethyl]-2,4-dichloro-3-(2,4-dimethyl-quinolin-8-yloxymethyl)-benzenesulfonamide]: the Ki is 0.631 nM.

With `Cc1cc(C)c2cccc(OCc3c(Cl)ccc(S(=O)(=O)NC4(C(=O)N5CCC(N6CCN(C(=O)[C@@H](N)CCCNC(=N)N)CC6)CC5)CCCC4)c3Cl)c2n1` [Example 38], the Ki was 0.501 nM.

With `CCN=C(NCC)NCCC[C@H](N)C(=O)N1CCN(C(=O)C2(NS(=O)(=O)c3ccc(Cl)c(COc4cccc5c(C)cc(C)nc45)c3Cl)CCCC2)CC1` [Example 44], the Ki is 0.0794 nM.

`Cc1cc(C)c2cccc(OCc3c(Cl)ccc(S(=O)(=O)NC4(C(=O)N5CCC(C[N+](C)(C)CCCCC[N+](C)(C)C)CC5)CCCC4)c3Cl)c2n1` [Example 86, {5-[(1-{1-[2,4-Dichloro-3-(2,4-dimethyl-quinolin-8-yloxymethyl)-benzensulfonylamino]-cyclopentanecarbonyl}-piperidin-4-ylmethyl)-dimethyl-ammonium]-pentyl}-trimethyl-ammonium tris trifluoroacetate] gave a Ki of 0.398 nM.

The same assay, now with this note: human B2 receptor expressed in human fibroblasts W138.
Turning to `Cc1cc(C)c2cccc(OCc3c(Cl)ccc(S(=O)(=O)N[C@H](C)C(C)C(=O)N4CCN(C(=O)C[C@H](CCCNC(=N)N)NC(=N)N)CC4)c3Cl)c2n1.O=C(O)C(F)(F)F.O=C(O)C(F)(F)F.O=C(O)C(F)(F)F` (stereo partly shown) [Example 73], the pKi is 9.2.

On to `Cc1cc(C)c2cccc(OCc3c(Cl)ccc(S(=O)(=O)N[C@H](C)C(C)C(=O)N4CCN(C(=O)CN5CCN(CCNC(=N)N)CC5)CC4)c3Cl)c2n1.O=C(O)C(F)(F)F.O=C(O)C(F)(F)F.O=C(O)C(F)(F)F.O=C(O)C(F)(F)F` (stereo partly shown) [Example 71], for which the pKi is on record as 9.4.

The compound `Cc1cc(C)c2cccc(OCc3c(Cl)ccc(S(=O)(=O)NC4(C(=O)N5CCN(C(=O)C[C@@H](N)CCC[N+](C)(C)C)CC5)CCCC4)c3Cl)c2n1.Cc1cc(C)c2cccc(OCc3c(Cl)ccc(S(=O)(=O)NC4(C(=O)N5CCN(C(=O)C[C@@H](N)CCC[N+](C)(C)C)CC5)CCCC4)c3Cl)c2n1.O=C([O-])C(F)(F)F.O=C([O-])C(F)(F)F` [Example 107, [4-(S)-Amino-6-(4-{1-[2,4-dichloro-3-(2,4-dimethyl-quinolin-8-yloxymethyl)-benzenesulfonylamino]-cyclopentanecarbonyl}-piperazin-1-yl)-6-oxohexyl]-trimethylammonium bis trifluoroacetate] yielded a pKi of 9.7.

In the case of `Cc1cc(C)c2cccc(OCc3c(Cl)ccc(S(=O)(=O)NC4(C(=O)N5CCN(C(=O)[C@H](CCCCN)[N+](C)(C)C)CC5)CCCC4)c3Cl)c2n1` [Example 90, N-[1-[4-(2-(S)-Trimethylammonium-6-amino-hexanoyl)-piperazin-1-yl]-cyclopentyl]-2,4-dichloro-3-(2,4-dimethyl-quinolin-8-yloxymethyl)-benzenesulfonamide tris trifluoroacetate], the pKi came out at 9.9.

`Cc1cc(C)c2cccc(OCc3c(Cl)ccc(S(=O)(=O)NC4(C(=O)N5CCN(C(=O)CCC[N+](C)(C)C)CC5)CCCC4)c3Cl)c2n1` [Example 83, N-{1-[4-(4-Trimethylammonium-butanoyl)-piperazine-1-carbonyl]-cyclopentyl}-2,4-dichloro-3-(2,4-dimethyl-quinolin-8-yloxymethyl)-benzenesulfonamide bis trifluoroacetate] came in with a pKi of 9.4.

Staying with this assay, now noted: human B2 receptor expressed in human fibroblasts W138; read-out: pKi (converted).
As for `CC[C@@](C)(NS(=O)(=O)c1ccc(Cl)c(COc2cccc3c(C)cc(C)nc23)c1Cl)C(=O)N1CCN(C(=O)C[C@@H](N)CCCN(C)C)CC1` [Example 74, (R)—N-[4-(3-(S)-Amino-6-dimethylamino-hexanoyl)-piperazine-1-carbonyl]-1-methyl-propyl]-2,4-dichloro-3-(2,4-dimethyl-quinolin-8-yloxymethyl)-benzenesulfonamide tris trifluoroacetate], the Ki is 0.794 nM.

With `Cc1cc(C)c2cccc(OCc3c(Cl)ccc(S(=O)(=O)NC4(C(=O)N5CCN(C(=O)[C@@H](N)CC6CCNCC6)CC5)CCCC4)c3Cl)c2n1` [Example 81, N-{1-[4-(2-(S)Amino-3-piperidin-4-yl-propionyl)-piperazine-1-carbonyl]-cyclopentyl}-2,4-dichloro-3-(2,4-dimethyl-quinolin-8-yloxymethyl)-benzenesulfonamide tris trifluoroacetate], the Ki was 0.631 nM.

On to `CNCCCCCNCC1CCN(C(=O)C2(NS(=O)(=O)c3ccc(Cl)c(COc4cccc5c(C)cc(C)nc45)c3Cl)CCCC2)CC1` [Example 106, 2,4-Dichloro-3-(2,4-dimethyl-quinolin-8-yloxymethyl)-N-(1-{4-[(5-methylamino-pentylamino)-methyl]-piperidine-1-carbonyl}-cyclopentyl)-benzenesulfonamide tris trifluoroacetate], for which the Ki is 0.398 nM.

For `Cc1cc(C)c2cccc(OCc3c(Cl)ccc(S(=O)(=O)NC(C)(C)C(=O)N4CCN(C(=O)C[C@@H](N)CCCN(C)C)CC4)c3Cl)c2n1` [Example 46, N-[2-[4-(3-(S)-Amino-6-dimethylamino-hexanoyl)-piperazin-1-yl]-1,1-dimethyl-2-oxo-ethyl]-2,4-dichloro-3-(2,4-dimethyl-quinolin-8-yloxymethyl)-benzenesulfonamide], the Ki was 0.501 nM.

Turning to `Cc1ccc2cccc(OCc3c(Cl)ccc(S(=O)(=O)NC(C)(C)C(=O)N4CCN(C(=O)CNC5CCNCC5)CC4)c3Cl)c2n1` [Example 26, N-{2-[4-[N-(4-Piperidyl)glycyl]-piperazin-1-yl]-1,1-dimethyl-2-oxo-ethyl}-2,4-dichloro-3-(2-methyl-8-quinolinoxymethyl)-benzenesulfonamide tris trifluoroacetate], the Ki was 0.501 nM.

Consider `Cc1cc(C)c2cccc(OCc3c(Cl)ccc(S(=O)(=O)NC4(C(=O)N5CCN(C(=N)NCCNCCCN)CC5)CCCC4)c3Cl)c2n1` [Example 96, N-[2-(3-Amino-propylamino)-ethyl]-4-{1-[2,4-dichloro-3-(2,4-dimethyl-quinolin-8-yloxymethyl)-benzenesulfonylamino]-cyclopentanecarbonyl}-piperazine-1-carboxamidine bis trifluoroacetate], for which the Ki is 0.794 nM.

Take `Cc1ccc2cccc(OCc3c(Cl)ccc(S(=O)(=O)NC(C)(C)C(=O)N4CCN(C(=O)C[C@@H](N)CCCN(C)C)CC4)c3Cl)c2n1` [Example 29, N-{2-[4-(3-(S)-Amino-6-dimethylamino-hexanoyl)-piperazin-1-yl]-1,1-dimethyl-2-oxo-ethyl}-2,4-dichloro-3-(2-methyl-8-quinolinoxymethyl)-benzenesulfonamide tris trifluoroacetate]: the Ki was 0.631 nM.

Consider `CC[C@@](C)(NS(=O)(=O)c1ccc(Cl)c(COc2cccc3c(C)cc(C)nc23)c1Cl)C(=O)N1CCN(C(=O)[C@@H](N)CCCCN(C)C)CC1` [Example 61, (R)—N-[1-[4-(2-(S)-Amino-6-dimethylamino-hexanoyl)-piperazine-1-carbonyl]-1-methyl-propyl]-2,4-dichloro-3-(2,4-dimethyl-quinolin-8-yloxymethyl)-benzenesulfonamide tris trifluoroacetate], for which the Ki was 0.501 nM.

On to `Cc1ccc2cccc(OCc3c(Cl)ccc(S(=O)(=O)NC(C)(C)C(=O)N4CCN(C(=O)C[C@@H](N)CCCCN(C)C)CC4)c3Cl)c2n1` [Example 30, N-{2-[4-(3-(S)-Amino-7-dimethylamino-heptanoyl)-piperazin-1-yl]-1,1-dimethyl-2-oxo-ethyl}-2,4-dichloro-3-(2-methyl-8-quinolinoxymethyl)-benzenesulfonamide tris trifluoroacetate], for which the Ki is 0.794 nM.

Take `Cc1cc(C)c2cccc(OCc3c(Cl)ccc(S(=O)(=O)NC4(C(=O)N5CCN(C[C@H](N)CCCCN)CC5)CCCC4)c3Cl)c2n1` [Example 98, 2,4-Dichloro-N-{1-[4-(2(R),6-diamino-hexyl)-piperazine-1-carbonyl]-cyclopentyl}-3-(2,4-dimethyl-quinolin-8-yloxymethyl)-benzenesulfonamide tetra trifluoroacetate]: the Ki is 0.631 nM.
